Experimental data from patent publication US9796728B2, “Cyclic carbonate monomer containing double-sulfur five-membered ring functional group, and preparation method thereof” (BrightGene Bio-Medical Technology Co., Ltd., priority 2014, dated 2017).

Tested on: B16 melanoma
Experiment: Treating melanoma-bearing mice with drug-loaded crosslinked nanoparticles
Type: in vivo, C57BL/6 black mice
Description: C57BL/6 black mice with body weight of about 18˜20 g, aged 4˜6 weeks were used in the experiment. The mice were weighed and equally grouped based on body weight, then 1×10^6 B16 melanoma cells were subcutaneously injected. After one week, when the size of the tumors was 30˜50 mm^3, the drug-loaded nanoparticles and free DOX were injected into the mice through tail veins at Day 0, 2, 4, 6, and 8, where the amount of DOX in drug-carrying nanoparticles was 10, 20, 30 mg/kg, […] From Day 0 to 15, the body weight of the mice in each group was weighed every day. The size of the tumor was precisely measured with Vernier scale, where the method for calculating the volume of tumors was: V=(L×W×H)/2, (where L was the length of the tumor, W was the width of the tumor, H was the thickness of the tumor). The survival of the mice was observed continuously till the 46th day.
FIG. 11 is a curve graph showing that the doxorubicin-loaded polymer PEG5k-b-PCDC2.8k crosslinked nanoparticles inhibit tumor growth on melanoma-bearing mice; FIG. 12 is a curve graph showing the change of body weight of the mice. FIG. 13 is a curve graph showing the survival of the mice.

## COc1cccc2c1C(=O)c1c(O)c3c(c(O)c1C2=O)C[C@@](O)(C(=O)CO)C[C@@H]3O[C@H]1C[C@H](N)[C@H](O)[C@H](C)O1 [free DOX, doxorubicin]
DOX group, in 7 days
  body weight decrease: 23%
DOX group, printed as 30 mg/kg
  day of treatment on which all mice died: 10 days
Free DOX group
  toxic side effects on the mice: severe toxic side effect
